Experimental data taken from PubChem BioAssay AID1963962 (Molecular Pharmacology Branch, DTP, NCI, 2024).
pIC50: −log10 of the molar value.

Test system: 967376-340-R-J2-PDC multicell spheroid viability
Experiment: Anticancer human tumor 967376-340-R-J2-PDC patient-derived colon adenocarcinoma cell line growth inhibition [PI3K]
Settings: for pIC50: curve of first compound; for viability, T/C: stronger effect = lower value
Method in brief: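 Three cell types, namely tumor cells, endothelial cells and mesenchymal stem cells, formed each spheroid. Combinations with four PI3K inhibitors were screened at clinically achievable concentrations decreasing by half-log, and spheroid viability was recorded.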

[1] = second compound 0.0316 µM, first compound 0.000316 µM
[2] = second compound 0.0316 µM, first compound 0.001 µM
[3] = second compound 0.0316 µM, first compound 0.00316 µM
[4] = second compound 0.0316 µM, first compound 0.01 µM
[5] = second compound 0.0316 µM, first compound 0.0316 µM
[6] = second compound 0.0316 µM, first compound 0.1 µM
[7] = second compound 0.1 µM, first compound 0.000316 µM
[8] = second compound 0.1 µM, first compound 0.001 µM
[9] = second compound 0.1 µM, first compound 0.00316 µM
[10] = second compound 0.1 µM, first compound 0.01 µM
[11] = second compound 0.1 µM, first compound 0.0316 µM
[12] = second compound 0.1 µM, first compound 0.1 µM
[13] = second compound 0.316 µM, first compound 0.000316 µM
[14] = second compound 0.316 µM, first compound 0.001 µM
[15] = second compound 0.316 µM, first compound 0.00316 µM
[16] = second compound 0.316 µM, first compound 0.01 µM
[17] = second compound 0.316 µM, first compound 0.0316 µM
[18] = second compound 0.316 µM, first compound 0.1 µM
[19] = second compound 1 µM, first compound 0.000316 µM
[20] = second compound 1 µM, first compound 0.001 µM
[21] = second compound 1 µM, first compound 0.00316 µM
[22] = second compound 1 µM, first compound 0.01 µM
[23] = second compound 1 µM, first compound 0.0316 µM
[24] = second compound 1 µM, first compound 0.1 µM
[25] = second compound 3.16 µM, first compound 0.000316 µM
[26] = second compound 3.16 µM, first compound 0.001 µM
[27] = second compound 3.16 µM, first compound 0.00316 µM
[28] = second compound 3.16 µM, first compound 0.01 µM
[29] = second compound 3.16 µM, first compound 0.0316 µM
[30] = second compound 3.16 µM, first compound 0.1 µM
[31] = second compound 10 µM, first compound 0.000316 µM
[32] = second compound 10 µM, first compound 0.001 µM
[33] = second compound 10 µM, first compound 0.00316 µM
[34] = second compound 10 µM, first compound 0.01 µM
[35] = second compound 10 µM, first compound 0.0316 µM
[36] = second compound 10 µM, first compound 0.1 µM
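Note: spheroids exposed to agents for 7 days before read-out.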
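Throughout, for viability, T/C: luminescence used as surrogate of cell viability.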

Question: What does the source list for `CC(=O)c1c(C)c2cnc(Nc3ccc(N4CCNCC4)cn3)nc2n(C2CCCC2)c1=O` + Cc1nc(NC(=O)N2CCCC2C(N)=O)sc1-c1ccnc(C(C)(C)C(F)(F)F)c1?
Answer: pIC50 (second compound 0.0316 µM): < 7.00; pIC50 (second compound 0.1 µM): < 7.00; pIC50 (second compound 0.316 µM): < 7.00; pIC50 (second compound 1 µM): < 7.00; pIC50 (second compound 3.16 µM): < 7.00; pIC50 (second compound 10 µM): 7.61; viability, T/C [1]: 98.9%; viability, T/C [2]: 84.7%; viability, T/C [3]: 101%; viability, T/C [4]: 90.7%; viability, T/C [5]: 102%; viability, T/C [6]: 77.3%; viability, T/C [7]: 105%; viability, T/C [8]: 94.3%; viability, T/C [9]: 88.3%; viability, T/C [10]: 99.4%; viability, T/C [11]: 109%; viability, T/C [12]: 75.6%; viability, T/C [13]: 89%; viability, T/C [14]: 82.1%; viability, T/C [15]: 75%; viability, T/C [16]: 82.6%; viability, T/C [17]: 84.2%; viability, T/C [18]: 101%; viability, T/C [19]: 65%; viability, T/C [20]: 74.4%; viability, T/C [21]: 88.7%; viability, T/C [22]: 79.1%; viability, T/C [23]: 75.5%; viability, T/C [24]: 76.3%; viability, T/C [25]: 59.4%; viability, T/C [26]: 68.2%; viability, T/C [27]: 74.5%; viability, T/C [28]: 57.8%; viability, T/C [29]: 63.8%; viability, T/C [30]: 60.4%; viability, T/C [31]: 62.2%; viability, T/C [32]: 50.8%; viability, T/C [33]: 57.2%; viability, T/C [34]: 55.9%; viability, T/C [35]: 46.3%; viability, T/C [36]: 47.1%

Question: Which results are given for `CC(C)n1nc(-c2ccc3oc(N)nc3c2)c2c(N)ncnc21` + Cc1nc(NC(=O)N2CCCC2C(N)=O)sc1-c1ccnc(C(C)(C)C(F)(F)F)c1?
Answer: pIC50 (second compound 0.0316 µM): < 7.00; pIC50 (second compound 0.1 µM): 7.04; pIC50 (second compound 0.316 µM): 7.15; pIC50 (second compound 1 µM): 7.26; pIC50 (second compound 3.16 µM): 7.66; pIC50 (second compound 10 µM): 8.23; viability, T/C [1]: 90.8%; viability, T/C [2]: 108%; viability, T/C [3]: 96.5%; viability, T/C [4]: 109%; viability, T/C [5]: 70.5%; viability, T/C [6]: 53.4%; viability, T/C [7]: 84.1%; viability, T/C [8]: 69.3%; viability, T/C [9]: 88.7%; viability, T/C [10]: 73%; viability, T/C [11]: 70.8%; viability, T/C [12]: 48.2%; viability, T/C [13]: 67.5%; viability, T/C [14]: 79.3%; viability, T/C [15]: 80.4%; viability, T/C [16]: 72.3%; viability, T/C [17]: 58.7%; viability, T/C [18]: 46.2%; viability, T/C [19]: 65.4%; viability, T/C [20]: 64.5%; viability, T/C [21]: 59.3%; viability, T/C [22]: 59.7%; viability, T/C [23]: 66%; viability, T/C [24]: 36.2%; viability, T/C [25]: 54.6%; viability, T/C [26]: 58.2%; viability, T/C [27]: 62.3%; viability, T/C [28]: 53.7%; viability, T/C [29]: 46.7%; viability, T/C [30]: 32.2%; viability, T/C [31]: 47.8%; viability, T/C [32]: 54.2%; viability, T/C [33]: 51.6%; viability, T/C [34]: 48.9%; viability, T/C [35]: 41.3%; viability, T/C [36]: 34.5%
